Data taken from patent US5190959A, “Piperidine compounds which have useful pharmaceutical activity” (Kaken Pharmaceutical Co. Ltd., priority 1991, dated 1993).
Counter-ions that a name gives are not always drawn.

Tests used:
[1] = system: anaphylactic histamine release from lung fragments; assay: Inhibition of anaphylactic histamine release (passively sensitized lung fragments, antigen challenge); format: cell-based, Hartley male guinea pig; conditions: Cavia porcellus, 0.25 h; guinea pig lung fragments; DNP-egg albumin 0.3 μg/ml; compound added 10 min before antigen challenge; 37° C.; read-out: 25%-inhibitory conc. (anaphylactic histamine release)
Procedure: Inhibition of anaphylactic histamine release
Hartley male guinea pigs weighing about 450 g which were passively sensitized with an anti-DNP-egg albumin guinea pig serum were killed with a thiopentbarbital anesthetia. Their lungs were perfused by way of the pulmonary artery with a Tyrode's solution. The lungs were removed and fragmented. A definite weight of 100 mg lung fragments, which was distributed into individual tubes and suspended in 1 ml of Tyrode's solution, was challenged with the antigen (DNP-egg albumin, final concentration: 0.3 μg/ml) at 37° C. for 15 min. The test compounds obtained in Example, which were dissolved or suspended in Tyrode's solution, were added 10 min before antigen challenge. The reaction was stopped by immersing in ice cold water, and then centrifuged. The amount of histamine in the supernatant fluid was measured by using fluoremetric method according to Shore et al.
A: amount of histamine released by the antigen stimulation in the presence of a compound of the present invention
B: amount of histamine released spontaneously
C: amount of histamine released by the antigen stimulation.

isolated heart = assay: Langendorff perfused isolated heart: perfusion pressure, contractive force, heart rate; parameters: species or system Wistar male rat; conditions: for Contractive force (Δ %) / Heart rate (Δ %) / Perfusion pressure (Δ %): means value ± S.D., n = 3-4
Procedure: Hearts were isolated from Std; Wistar male rats weighing 200-300 g (9-10 weeks old). The hearts were perfused using Langendorff's apparatus at a flow rate of 8 ml/min. As a perfusate, Krebs-Henseleit-bicarbonate solution (37° C., pH 7.4) containing 11 mM glucose, oxygenated with a mixed gas of 95% O2 and 5% CO2 was used. The heart was preloaded with an initial resting tension of 2.0 g and paced at 200-300 beats min^-1. After the hearts were allowed to be stable for 30-60 minutes, 0.1 ml of a solution of each test compound in 10% DMSO was added thereto to be a concentration of 0.1, 1.0, 10 or 100 μg of each compound per heart.
Myocardial contractile force was isometrically measured by means of a force-displacement transducer (Type: TB-612T, made by Nihon Kohden Kogyo KK) connected to the apex of the heart through a thread. Coronary perfusion pressure was monitored by an electric manometer (Type: MPU-0.5, made by Nihon Kohden Kogyo KK) connected to a side branch of the aortic cannule.
[formula] A: value before adding a test compound B: value after adding a test compound

[2] = target: T1, histamine-induced constriction of tracheal smooth muscle (Cavia porcellus, UniProt P31389); assay: Antihistaminic activity (isolated tracheal smooth muscle chain strips, histamine constriction); format: cell-based, Hartley male guinea pig; conditions: guinea pig tracheal strip; compound 5 min prior to histamine; Van Rossum; read-out: pA2 (converted)
T1 construct: Isolated tracheal smooth muscle chain strips were prepared by a usual method; from tissue; host or cells: isolated tracheal smooth muscle chain strips of Hartley male guinea pigs
Procedure: Hartley male guinea pigs weighing 500-600 g were used. Isolated tracheal smooth muscle chain strips were prepared by a usual method and suspended in 2 ml organ bath of Tyrode's solution aerated with 95% O2.5 % CO2 at 37° C. Each strip was attached to an isotonic transducer (made by Nihon Koden Kogyo KK) with a load of 0.5 g. After almost constant contraction, histamine was added cumulatively, until maximum constriction was obtained. The constriction of tracheal strip was recorded by Servocorder (made by Giraphtec KK). The strip was washed with Tyrode's solution and allowed to stabilize. Test compound was to the bath 5 min prior to the addition of histamine and the response curve to the histamine was repeated. The pA2 values were calculated using the techniques of Van Rossum.

[3] = Acute oral toxicity (LD50); conditions: mouse, in vivo, mice 22-27 g, ddY, male, 5 weeks
Procedure: The LD50 of the compounds obtained in Examples 1, 34, 37, 40 and 44 were more than 500 mg/kg when these compounds were given orally to mice weighing 22-27 g (ddY, male, 5 weeks).

[4] = 1 μg/heart, ** p <0.01 vs control
[5] = 10 μg/heart, ** p <0.01 vs control
[6] = 100 μg/heart, ** p <0.01 vs control

T1 sequence (P31389 whole entry): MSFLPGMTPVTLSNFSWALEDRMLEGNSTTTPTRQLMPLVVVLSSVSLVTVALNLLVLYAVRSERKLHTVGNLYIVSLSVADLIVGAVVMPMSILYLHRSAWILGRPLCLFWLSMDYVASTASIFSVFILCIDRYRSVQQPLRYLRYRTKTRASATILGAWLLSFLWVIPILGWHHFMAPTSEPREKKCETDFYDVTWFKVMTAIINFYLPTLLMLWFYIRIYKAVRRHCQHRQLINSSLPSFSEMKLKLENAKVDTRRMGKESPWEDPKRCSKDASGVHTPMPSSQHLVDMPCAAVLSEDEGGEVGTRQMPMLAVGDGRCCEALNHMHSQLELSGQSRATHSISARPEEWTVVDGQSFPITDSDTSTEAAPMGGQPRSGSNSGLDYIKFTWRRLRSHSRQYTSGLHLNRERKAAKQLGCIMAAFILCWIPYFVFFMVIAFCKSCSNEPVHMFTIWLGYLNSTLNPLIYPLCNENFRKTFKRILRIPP

SMILES	IC25 [1]	Contractive force (Δ %) (isolated heart; 0.1 μg/heart)	Heart rate (Δ %) (isolated heart; 0.1 μg/heart)	Heart rate (Δ %) (isolated heart; 1 μg/heart)	Contractive force (Δ %) (isolated heart; [4])	Perfusion pressure (Δ %) (isolated heart; [4])	Contractive force (Δ %) (isolated heart; [5])	Heart rate (Δ %) (isolated heart; [5])	Perfusion pressure (Δ %) (isolated heart; [5])	Contractive force (Δ %) (isolated heart; [6])	Heart rate (Δ %) (isolated heart; [6])	Perfusion pressure (Δ %) (isolated heart; [6])	Kb [2]	LD50 [3]	further results
CC(C)c1ccc2oc3nc(N)c(C(=O)O)cc3c(=O)c2c1 [Amlexanox, reference compound]	30000 nM														
COc1ccc([C@@H]2Sc3ccccc3N(CCN(C)C)C(=O)[C@@H]2OC(C)=O)cc1 [Diltiazem hydrochloride, reference compound]		3.5 ± 6.9%	-2.7 ± 1.8%	-3.5 ± 2.4%	7.0 ± 16.1%	-32.1 ± 6.9%	-67.1 ± 17.5%	-25.9 ± 30.3%	-47.1 ± 1.4%	-86.5 ± 7.0%	-71.4 ± 11.9%	-48.8 ± 1.4%			contractive force (in words) (isolated heart; 10 μg/heart): significant lowerings; heart rates (in words) (isolated heart; 10 μg/heart): significant lowerings
CS(=O)(=O)Nc1ccccc1OCCCN1CCC(OC(c2ccccc2)c2ccccc2)CC1 [Example 1, 4-diphenylmethoxy-1-[3-(2-methanesulfonylaminophenoxy)propyl]piperidine]	1000 nM	2.0 ± 3.6%	0.7 ± 1.2%	-0.7 ± 1.2%	11.9 ± 2.4%	-24.8 ± 3.0%	11.8 ± 2.3%	-0.7 ± 1.2%	-42.9 ± 3.2%	-25.0 ± 6.8%	-16.6 ± 15.6%	-49.0 ± 4.8%	2 nM	> 500 mg/kg	Perfusion pressure (Δ %) (isolated heart; 0.1 μg/heart): -8.39 ± 3.4%
CS(=O)(=O)Nc1ccccc1OCCCN1CCC(OC(c2ccc(Cl)cc2)c2ccccn2)CC1 (stereo not drawn) [Example 33, 4-[(4-chlorophenyl)-2-pyridylmethoxy]-1-[3-(2-methanesulfonylaminophenoxy)propyl]piperidine]		5.0 ± 4.3%	-1.2 ± 2.1%	-1.9 ± 1.8%	13.3 ± 1.9%	-19.2 ± 2.2%	16.0 ± 4.5%	-4.6 ± 4.7%	-39.1 ± 5.4%	-46.2 ± 13.4%	-17.2 ± 10.1%	-40.1 ± 5.2%			Perfusion pressure (Δ %) (isolated heart; 0.1 μg/heart): -7.0 ± 6.1%
CS(=O)(=O)Nc1ccccc1OCCCN1CCC(OC(c2ccccc2)c2cccnc2)CC1 (stereo not drawn) [Example 34 (fumarate)]	1000 nM												0.126 nM		
CS(=O)(=O)Nc1ccccc1OCCCN1CCC(OC(c2ccccc2)c2cccnc2)CC1 (stereo not drawn) [Example 34, 4-(phenyl-3-pyridylmethoxy)-1-[3-(2-methanesulfonylaminophenoxy)propyl]piperidine]														> 500 mg/kg	
CS(=O)(=O)Nc1ccccc1OCCCN1CCC(OC(c2ccccc2)c2cccs2)CC1 (stereo not drawn) [Example 36 (fumarate)]	100 nM												2.51 nM		
CC(CCOc1ccccc1NS(C)(=O)=O)N1CCC(OC(c2ccccc2)c2cccs2)CC1 (stereo not drawn) [Example 37, 4-(phenyl-2-thienylmethoxy)-1-[3-(2-methanesulfonylaminophenoxy)-1-methylpropyl]piperidine]	100 nM												3.98 nM	> 500 mg/kg	
CS(=O)(=O)Nc1ccccc1OC/C=C\CN1CCC(OC(c2ccccc2)c2cccs2)CC1 (stereo not drawn) [Example 40, 4-(phenyl-2-thienylmethoxy)-1-[4-(2-methanesulfonylaminophenoxy)-2(Z)-butenyl]piperidine]	100 nM												6.31 nM	> 500 mg/kg	
CS(=O)(=O)Nc1ccccc1OCCCN1CCC(OC(c2ccsc2)c2ccsc2)CC1 [Example 44 (fumarate)]	30 nM												2.51 nM		
CS(=O)(=O)Nc1ccccc1OCCCN1CCC(OC(c2ccsc2)c2ccsc2)CC1 [Example 44, 4-di(3-thienyl)methoxy-1-[3-(2-methanesulfonylaminophenoxy)propyl]piperidine]		8.8 ± 2.5%	-5.7 ± 1.4%	-3.6 ± 4.1%	19.1 ± 5.7%	-28.9 ± 3.0%	16.2 ± 11.3%	-6.3 ± 1.5%	-47.9 ± 4.8%	-46.3 ± 19.4%	-59.9 ± 11.1%	-55.8 ± 3.5%		> 500 mg/kg	Perfusion pressure (Δ %) (isolated heart; 0.1 μg/heart): -6.0 ± 13.7%
O=c1[nH]c2ccccc2n1CCCN1CCN(C(c2ccccc2)c2ccccc2)CC1 [Oxatomide, reference compound]	100000 nM												1.26 nM		
